ChEMBL document CHEMBL4261654, “Synthesis and in vitro antitumor activity of novel alkenyl derivatives of pyridoxine, bioisosteric analogs of feruloyl methane” (Bioorg Med Chem, 2018)
Calls of active or inactive are those of the source. The rule behind the calls is not given here.

Key:
[1] = tested on: MCF7; test: Antiproliferative activity against human MCF7 cells after 72 hrs by MTT assay; assay type: functional, cell-based; conditions: MCF7, 72 h
[2] = tested on: HEK293; test: Antiproliferative activity against human HEK293 cells after 72 hrs by MTT assay; assay type: cell-based; conditions: HEK293, 72 h
[3] = tested on: PC-3; test: Antiproliferative activity in human PC3 cells at 10 uM measured after 120 hrs measured each 15 mins by RTCA DP based cellular impedance analysis; assay type: functional
[4] = tested on: PC-3; test: Antiproliferative activity in human PC3 cells at 0.2 to 2 uM measured during 120 hrs each 15 mins by RTCA DP based cellular impedance analysis; assay type: functional, cell-based
[5] = Antiproliferative activity against HSF cells after 72 hrs by MTT assay; assay type: cell-based; conditions: Homo sapiens
[6] = tested on: PC-3; test: Antiproliferative activity against human PC3 cells after 72 hrs by MTT assay; assay type: functional, cell-based; conditions: PC-3, 72 h
[7] = tested on: A498; test: Antiproliferative activity against human A498 cells after 72 hrs by MTT assay; assay type: functional, cell-based; conditions: A498, 72 h
[8] = tested on: SNB-19; test: Antiproliferative activity against human SNB19 cells after 72 hrs by MTT assay; assay type: functional, cell-based; conditions: SNB-19, 72 h
[9] = tested on: M14; test: Antiproliferative activity against human M14 cells after 72 hrs by MTT assay; assay type: functional, cell-based; conditions: M14, 72 h
[10] = tested on: OVCAR-4; test: Antiproliferative activity against human OVCAR4 cells after 72 hrs by MTT assay; assay type: functional, cell-based; conditions: OVCAR-4, 72 h
[11] = tested on: NCI-H322M; test: Antiproliferative activity against human NCI-H322M cells after 72 hrs by MTT assay; assay type: functional, cell-based
[12] = tested on: HCT-15; test: Antiproliferative activity against human HCT15 cells after 72 hrs by MTT assay; assay type: functional, cell-based; conditions: HCT-15, 72 h
[13] = tested on: HCT-116; test: Antiproliferative activity against human HCT116 cells after 72 hrs by MTT assay; assay type: functional, cell-based; conditions: HCT-116, 72 h
[14] = tested on: MDA-MB-231; test: Antiproliferative activity against human MDA-MB-231 cells after 72 hrs by MTT assay; assay type: functional, cell-based; conditions: MDA-MB-231, 72 h
[15] = Selectivity index, ratio of IC50 for HSF cells to IC50 for human MCF7 cells; assay type: toxicity; conditions: HSF cells versus MCF7 cells, read-out: Ratio IC50
[16] = Ratio of compound IC50 to dehydrozingerone IC50 for antiproliferative activity against HSF cells; assay type: cell-based; conditions: human, read-out: Ratio IC50
[17] = tested on: MCF7; test: Potency index, ratio of compound IC50 to dehydrozingerone IC50 for antiproliferative activity against human MCF7 cells; assay type: functional
[18] = tested on: PC-3; test: Potency index, ratio of compound IC50 to dehydrozingerone IC50 for antiproliferative activity against human PC3 cells; assay type: functional
[19] = tested on: A498; test: Potency index, ratio of compound IC50 to dehydrozingerone IC50 for antiproliferative activity against human A498 cells; assay type: functional
[20] = tested on: SNB-19; test: Potency index, ratio of compound IC50 to dehydrozingerone IC50 for antiproliferative activity against human SNB19 cells; assay type: functional
[21] = tested on: M14; test: Potency index, ratio of compound IC50 to dehydrozingerone IC50 for antiproliferative activity against human M14 cells; assay type: functional
[22] = tested on: OVCAR-4; test: Potency index, ratio of compound IC50 to dehydrozingerone IC50 for antiproliferative activity against human OVCAR4 cells; assay type: functional
[23] = tested on: NCI-H322M; test: Potency index, ratio of compound IC50 to dehydrozingerone IC50 for antiproliferative activity against human NCI-H322M cells; assay type: functional
[24] = tested on: HCT-15; test: Potency index, ratio of compound IC50 to dehydrozingerone IC50 for antiproliferative activity against human HCT15 cells; assay type: functional
[25] = tested on: HCT-116; test: Potency index, ratio of compound IC50 to dehydrozingerone IC50 for antiproliferative activity against human HCT116 cells; assay type: functional
[26] = tested on: MDA-MB-231; test: Potency index, ratio of compound IC50 to dehydrozingerone IC50 for antiproliferative activity against human MDA-MB-231 cells; assay type: functional
[27] = tested on: PC-3; test: Antimigratory activity in human PC3 cells at 0.2 uM measured during 120 hrs each 15 mins by RTCA DP based cellular impedance analysis; assay type: functional
[28] = tested on: PC-3; test: Antimigratory activity in human PC3 cells at 2 uM measured during 120 hrs each 15 mins by RTCA DP based cellular impedance analysis; assay type: functional
[29] = tested on: PC-3; test: Antimigratory activity in human PC3 cells at 10 uM measured during 120 hrs each 15 mins by RTCA DP based cellular impedance analysis; assay type: functional
[30] = tested on: PC-3; test: Cell cycle arrest in human PC3 cells assessed as accumulation at G0/G1 phase at 2 uM after 72 hrs by RNase/propidium iodide staining-based flow cytometric analysis (reference value: 61 +/- 3%); assay type: functional
[31] = tested on: PC-3; test: Cell cycle arrest in human PC3 cells assessed as accumulation at S phase at 2 uM after 72 hrs by RNase/propidium iodide staining-based flow cytometric analysis (reference value: 17 +/- 1%); assay type: functional
[32] = tested on: PC-3; test: Cell cycle arrest in human PC3 cells assessed as accumulation at G2/M phase at 2 uM after 72 hrs by RNase/propidium iodide staining-based flow cytometric analysis (reference value: 20 +/- 3%); assay type: functional
[33] = tested on: PC-3; test: Cell cycle arrest in human PC3 cells assessed as accumulation at G0/G1 phase at 10 uM after 72 hrs by RNase/propidium iodide staining-based flow cytometric analysis (reference value: 61 +/- 3%); assay type: functional
[34] = tested on: PC-3; test: Cell cycle arrest in human PC3 cells assessed as accumulation at S phase at 10 uM after 72 hrs by RNase/propidium iodide staining-based flow cytometric analysis (reference value: 17 +/- 1%); assay type: functional
[35] = tested on: PC-3; test: Cell cycle arrest in human PC3 cells assessed as accumulation at G2/M phase at 10 uM after 72 hrs by RNase/propidium iodide staining-based flow cytometric analysis (reference value: 20 +/- 3%); assay type: functional
[36] = Antioxidant activity assessed as ferric ion reducing activity at 20 to 320 umol after 20 mins by FRAP assay; assay type: functional
[37] = tested on: PC-3; test: Induction of apoptosis in human PC3 cells assessed as necrotic cells at 10 uM after 24 hrs by Annexin V-PE/7-AAD staining-based flow cytometric analysis (reference value: 14%); assay type: functional
[38] = tested on: PC-3; test: Induction of apoptosis in human PC3 cells assessed as late apoptotic cells at 10 uM after 24 hrs by Annexin V-PE/7-AAD staining-based flow cytometric analysis (reference value: 8%); assay type: functional
[39] = tested on: PC-3; test: Induction of apoptosis in human PC3 cells assessed as early apoptotic cells at 10 uM after 24 hrs by Annexin V-PE/7-AAD staining-based flow cytometric analysis (reference value: 2%); assay type: functional
[40] = tested on: PC-3; test: Induction of apoptosis in human PC3 cells assessed as viable cells at 10 uM after 24 hrs by Annexin V-PE/7-AAD staining-based flow cytometric analysis (reference value: 70%); assay type: functional; conditions: PC-3, 24 h, read-out: Activity
[41] = tested on: PC-3; test: Induction of apoptosis in human PC3 cells assessed as necrotic cells at 30 uM after 24 hrs by Annexin V-PE/7-AAD staining-based flow cytometric analysis (reference value: 14%); assay type: functional
[42] = tested on: PC-3; test: Induction of apoptosis in human PC3 cells assessed as late apoptotic cells at 30 uM after 24 hrs by Annexin V-PE/7-AAD staining-based flow cytometric analysis (reference value: 8%); assay type: functional
[43] = tested on: PC-3; test: Induction of apoptosis in human PC3 cells assessed as early apoptotic cells at 30 uM after 24 hrs by Annexin V-PE/7-AAD staining-based flow cytometric analysis (reference value: 2%); assay type: functional
[44] = tested on: PC-3; test: Induction of apoptosis in human PC3 cells assessed as viable cells at 30 uM after 24 hrs by Annexin V-PE/7-AAD staining-based flow cytometric analysis (reference value: 70%); assay type: functional; conditions: PC-3, 24 h, read-out: Activity
[45] = tested on: PC-3; test: Induction of mitochondrial membrane potential loss in human PC3 cells assessed as fluorescence intensity at 10 uM after 24 hrs by TMRE dye-based flow cytometric analysis (reference value: 10101 +/- 853); assay type: functional
[46] = tested on: PC-3; test: Induction of mitochondrial membrane potential loss in human PC3 cells assessed as fluorescence intensity at 20 uM after 24 hrs by TMRE dye-based flow cytometric analysis (reference value: 10101 +/- 853); assay type: functional
[47] = tested on: PC-3; test: Induction of mitochondrial membrane potential loss in human PC3 cells assessed as fluorescence intensity at 30 uM after 24 hrs by TMRE dye-based flow cytometric analysis (reference value: 10101 +/- 853); assay type: functional
[48] = tested on: PC-3; test: Induction of apoptosis in human PC3 cells assessed as intracellular ROS levels by measuring fluoresence intensity at 10 uM after 24 hrs by DCFH-DA staining-based flow cytometric analysis (reference value: 3176 +/- 398); assay type: functional
[49] = tested on: PC-3; test: Induction of apoptosis in human PC3 cells assessed as intracellular ROS levels by measuring fluoresence intensity at 20 uM after 24 hrs by DCFH-DA staining-based flow cytometric analysis (reference value: 3176 +/- 398); assay type: functional
[50] = tested on: PC-3; test: Induction of apoptosis in human PC3 cells assessed as intracellular ROS levels by measuring fluoresence intensity at 30 uM after 24 hrs by DCFH-DA staining-based flow cytometric analysis (reference value: 3176 +/- 398); assay type: functional

## CCCCCCCCCC(C)C1OCc2c(/C=C/C(C)=O)nc(C)c(O)c2CO1 (stereo not given)
[1]
  IC50: 2.9 µM
[2]
  IC50: 1.4 µM

## CC(=O)/C=C/c1nc(C)c(O)c2c1COC(C)(C)OC2
[1]
  IC50: 27 µM
[2]
  IC50: 38 µM

## CC(=O)/C=C/c1cnc(C)c2c1COC1(CCCCC1)O2
[3]
  inhibition at 10 µM: 25%
[4]
  Activity: inactive
[1]
  IC50: 1.1 µM
[2]
  IC50: 16 µM
[5]
  IC50: 15.6 µM
[6]
  IC50: 5.5 µM
[7]
  IC50: 6.5 µM
[8]
  IC50: 4.7 µM
[9]
  IC50: 2.6 µM
[10]
  IC50: 19 µM
[11]
  IC50: 4.6 µM
[12]
  IC50: 1.5 µM
[13]
  IC50: 2.8 µM
[14]
  IC50: 1.8 µM
[15]
  selectivity ratio: 14.2
[16]
  selectivity ratio: 7 to 211
[17]
  Ratio IC50: 7 - 211
[18]
  Ratio IC50: 7 - 211
[19]
  Ratio IC50: 7 - 211
[20]
  Ratio IC50: 7 - 211
[21]
  Ratio IC50: 7 - 211
[22]
  Ratio IC50: 7 - 211
[23]
  Ratio IC50: 7 - 211
[24]
  Ratio IC50: 7 - 211
[25]
  Ratio IC50: 7 - 211
[26]
  Ratio IC50: 7 - 211
[27]
  inhibition at 0.2 µM: 11%
[28]
  inhibition at 2 µM: 27%
[29]
  inhibition at 10 µM: 47%
[30]
  Activity: 61%
[31]
  Activity: 18%
[32]
  Activity: 19%
[33]
  Activity: 52%
[34]
  Activity: 17%
[35]
  Activity: 29%
[36]
  Activity: inactive
[37]
  Activity: 17%
[38]
  Activity: 16%
[39]
  Activity: 3%
[40]
  viability at 10 µM: 63%
[41]
  Activity: 6%
[42]
  Activity: 52%
[43]
  Activity: 3%
[44]
  viability at 30 µM: 39%
[45]
  Flu intensity: 9999
[46]
  Flu intensity: 10524
[47]
  Flu intensity: 7587
[48]
  Flu intensity: 3680
[49]
  Flu intensity: 4486
[50]
  Flu intensity: 3085

## COc1cccc2c1C(=O)c1c(O)c3c(c(O)c1C2=O)C[C@@](O)(C(=O)CO)C[C@@H]3O[C@H]1C[C@H](N)[C@H](O)[C@H](C)O1 [DOXORUBICIN]
[2]
  IC50: 1.2 µM
[5]
  IC50: 2.2 µM
[6]
  IC50: 0.23 µM
[7]
  IC50: 6.1 µM
[8]
  IC50: 0.15 µM
[9]
  IC50: 3.4 µM
[10]
  IC50: 0.15 µM
[11]
  IC50: 29 µM
[12]
  IC50: 2.2 µM
[13]
  IC50: 0.4 µM
[14]
  IC50: 0.3 µM

## O=C1O[C@H]([C@@H](O)CO)C(O)=C1O
[36]
  Activity: Active

## CCC1OCc2c(/C=C/C(C)=O)cnc(C)c2O1 (stereo not given)
[1]
  IC50: 3.9 µM
[2]
  IC50: 36 µM
[5]
  IC50: 18.9 µM
[6]
  IC50: 8.8 µM
[7]
  IC50: 17 µM
[8]
  IC50: 6.7 µM
[9]
  IC50: 9.7 µM
[10]
  IC50: 23.6 µM
[11]
  IC50: 10.6 µM
[12]
  IC50: 2.1 µM
[13]
  IC50: 4.1 µM
[14]
  IC50: 3.1 µM
[15]
  selectivity ratio: 4.8
[16]
  selectivity ratio: 7 to 211
[17]
  Ratio IC50: 7 - 211
[18]
  Ratio IC50: 7 - 211
[19]
  Ratio IC50: 7 - 211
[20]
  Ratio IC50: 7 - 211
[21]
  Ratio IC50: 7 - 211
[22]
  Ratio IC50: 7 - 211
[23]
  Ratio IC50: 7 - 211
[24]
  Ratio IC50: 7 - 211
[25]
  Ratio IC50: 7 - 211
[26]
  Ratio IC50: 7 - 211
[36]
  Activity: inactive

## CCCCC1OCc2c(/C=C/C(C)=O)cnc(C)c2O1 (stereo not given)
[1]
  IC50: 1.3 µM
[2]
  IC50: 13 µM

## CCCCCCCCCC(C)C1OCc2c(/C=C/C(C)=O)cnc(C)c2O1 (stereo not given)
[1]
  IC50: 2.4 µM
[2]
  IC50: 7 µM
